Experiments:
[1] = target: Recombinant Human NF-Kappab-Inducing Kinase (NIK/MAP3K14) (Homo sapiens, UniProt Q99558); assay: Inhibition of auto-phosphorylation of recombinant human NIK/MAP3K14 (AlphaScreen); type: biochemical; details: NIK/MAP3K14 auto-phosphorylation, 5 microM ATP, 1 nM enzyme, 2 h at 25° C.; average of values; read-out: Assay 1 IC50
Summary of the method: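 AlphaScreen read-out used anti-phospho-IKK Ser176/180 antibody after 2 h, 25 °C incubation of compound, 1 nM GST-NIK and 5 µM ATP (final DMSO 0.7%). Percent inhibition referenced to high (enzyme) and low (no enzyme, no ATP) controls; sigmoidal curve fitting gave IC50.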

[2] = tested on: p-IKKα levels in L363 (NIK translocated multiple myeloma) cells; assay: Effect of compounds on p-IKKα levels in L363 cells (AlphaLISA SureFire Ultra); type: cell-based; details: Homo sapiens, L-363; L363 cells, BAFF stimulated, MG132, 6 h; average of values; read-out: Assay 2 IC50
Summary of the method: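 Phospho-IKKα (Ser 176/180) was quantified by AlphaLISA in lysed L363 cells after 6 h compound exposure (0.3% DMSO, 11 points, 1:3) alongside 250 ng/ml BAFF and 10 uM MG132, following overnight BAFF priming in low-serum DMEM. Duplicate curves were scaled between BAFF/DMSO/MG132 and unstimulated DMSO wells, then fitted sigmoidally for IC50.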

Sequence of Recombinant Human NF-Kappab-Inducing Kinase (NIK/MAP3K14) (Q99558 whole entry): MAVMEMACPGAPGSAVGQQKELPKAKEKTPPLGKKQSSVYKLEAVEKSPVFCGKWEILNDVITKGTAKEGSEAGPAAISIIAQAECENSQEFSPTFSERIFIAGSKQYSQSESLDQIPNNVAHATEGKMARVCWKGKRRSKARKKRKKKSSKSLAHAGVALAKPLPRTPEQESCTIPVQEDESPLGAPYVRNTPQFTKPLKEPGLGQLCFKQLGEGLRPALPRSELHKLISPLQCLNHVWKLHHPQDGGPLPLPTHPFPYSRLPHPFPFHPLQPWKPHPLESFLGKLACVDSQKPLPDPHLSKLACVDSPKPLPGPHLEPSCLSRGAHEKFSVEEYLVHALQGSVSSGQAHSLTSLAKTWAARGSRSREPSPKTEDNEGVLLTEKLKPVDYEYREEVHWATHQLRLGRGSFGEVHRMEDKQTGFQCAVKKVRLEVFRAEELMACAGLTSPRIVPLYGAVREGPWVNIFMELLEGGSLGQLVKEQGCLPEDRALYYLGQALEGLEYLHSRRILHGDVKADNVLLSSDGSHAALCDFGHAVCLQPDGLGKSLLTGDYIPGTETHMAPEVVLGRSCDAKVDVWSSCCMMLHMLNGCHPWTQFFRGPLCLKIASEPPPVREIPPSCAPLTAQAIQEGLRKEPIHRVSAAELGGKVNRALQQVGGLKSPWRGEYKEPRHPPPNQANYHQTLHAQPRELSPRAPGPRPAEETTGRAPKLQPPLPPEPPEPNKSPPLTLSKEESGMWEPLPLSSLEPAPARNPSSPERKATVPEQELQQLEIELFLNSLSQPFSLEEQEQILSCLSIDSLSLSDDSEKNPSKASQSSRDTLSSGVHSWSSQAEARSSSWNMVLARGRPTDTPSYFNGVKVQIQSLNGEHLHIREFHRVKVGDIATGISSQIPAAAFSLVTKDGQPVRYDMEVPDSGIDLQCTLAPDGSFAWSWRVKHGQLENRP

SMILES: CN1CC[C@@](O)(c2cc(-c3cccc(-c4nc(C(N)=O)c(CN)s4)c3)no2)C1=O [Example 237, (R)-5-(Aminomethyl)-2-(3-(5-(3-hydroxy-1-methyl-2-oxopyrrolidin-3-yl)isoxazol-3-yl)phenyl)thiazole-4-carboxamide]
- IC50 [1]: < 100 nM
- IC50 [2]: > 501 nM

SMILES: CN1CC[C@@](O)(c2cc(-c3cccc(-c4nc(C(N)=O)c(CNc5ccn(C)n5)s4)c3)no2)C1=O [Example 238, (R)-2-(3-(5-(3-Hydroxy-1-methyl-2-oxopyrrolidin-3-yl)isoxazol-3-yl)phenyl)-5-(((1-methyl-1H-pyrazol-3-yl)amino)methyl)thiazole-4-carboxamide]
- IC50 [1]: < 100 nM
- IC50 [2]: 100 to 500 nM

SMILES: Cc1cn(C)nc1Nc1sc(-c2cccc(-c3cc([C@]4(O)CCN(C)C4=O)on3)c2)nc1C(N)=O [Example 239, (R)-5-((1,4-Dimethyl-1H-pyrazol-3-yl)amino)-2-(3-(5-(3-hydroxy-1-methyl-2-oxopyrrolidin-3-yl)isoxazol-3-yl)phenyl)thiazole-4-carboxamide]
- IC50 [1]: < 100 nM
- IC50 [2]: < 100 nM

SMILES: CN1CC[C@@](O)(c2cc(-c3ccc(F)c(-c4cc(C(F)(F)F)cc(C(N)=O)n4)c3)no2)C1=O [Example 240, (R)-6-(2-Fluoro-5-(5-(3-hydroxy-1-methyl-2-oxopyrrolidin-3-yl)isoxazol-3-yl)phenyl)-4-(trifluoromethyl)picolinamide]
- IC50 [1]: < 100 nM
- IC50 [2]: > 501 nM

SMILES: CN1CC[C@@](O)(c2cc(-c3ccnc(-c4cc(C5CC5)c(N)c(C(N)=O)n4)c3)no2)C1=O [Example 241, (R)-5-Amino-4-cyclopropyl-4′-(5-(3-hydroxy-1-methyl-2-oxopyrrolidin-3-yl)isoxazol-3-yl)-[2,2′-bipyridine]-6-carboxamide]
- IC50 [1]: < 100 nM
- IC50 [2]: < 100 nM

SMILES: CN1CC[C@@](O)(c2cc(-c3cccc(-c4cc(C5CC5)c(N)c(C(N)=O)n4)c3F)no2)C1=O [Example 242, (R)-3-Amino-4-cyclopropyl-6-(2-fluoro-3-(5-(3-hydroxy-1-methyl-2-oxopyrrolidin-3-yl)isoxazol-3-yl)phenyl)picolinamide]
- IC50 [1]: < 100 nM
- IC50 [2]: < 100 nM

SMILES: CN1CC[C@@](O)(c2cc(-c3cc(F)cc(-c4cc(C5CC5)c(N)c(C(N)=O)n4)c3)no2)C1=O [Example 243, (R)-3-Amino-4-cyclopropyl-6-(3-fluoro-5-(5-(3-hydroxy-1-methyl-2-oxopyrrolidin-3-yl)isoxazol-3-yl)phenyl)picolinamide]
- IC50 [1]: < 100 nM
- IC50 [2]: < 100 nM

SMILES: CN1CC[C@@](O)(c2cc(-c3cc(-c4cc(C5CC5)c(N)c(C(N)=O)n4)ccc3F)no2)C1=O [Example 244, (R)-3-Amino-4-cyclopropyl-6-(4-fluoro-3-(5-(3-hydroxy-1-methyl-2-oxopyrrolidin-3-yl)isoxazol-3-yl)phenyl)picolinamide]
- IC50 [1]: < 100 nM
- IC50 [2]: > 501 nM

SMILES: CN1CC[C@@](O)(c2cc(-c3ccc(F)c(-c4cc(C5CC5)c(N)c(C(N)=O)n4)c3)no2)C1=O [Example 245, (R)-3-Amino-4-cyclopropyl-6-(2-fluoro-5-(5-(3-hydroxy-1-methyl-2-oxopyrrolidin-3-yl)isoxazol-3-yl)phenyl)picolinamide]
- IC50 [1]: < 100 nM
- IC50 [2]: < 100 nM

From US20250282785A1, “PYRROLIDINONE DERIVATIVES AS INHIBITORS OF NF KAPPA B INDUCING KINASE” (priority 2022, published 2025)
